Measured values reported in ChEMBL document CHEMBL5550185, “Targeting hTERT Promoter G-Quadruplex DNA Structures with Small-Molecule Ligand to Downregulate hTERT Expression for Triple-Negative Breast Cancer Therapy” (J Med Chem, 2024).
Calls of active or inactive are those of the source. The calls are words filed in the database; no cut-off is given here.

Assays:
[1] = tested on: MDA-MB-231; assay: Downregulation of hTERT mRNA expression in human MDA-MB-231 cells measured after 48 hrs by qRT-PCR analysis; type: functional, cell-based; settings: dose 0-1.5 µM
[2] = tested on: Quadruplex DNA; assay: Binding affinity to Bcl-2 G4 DNA (unknown origin) assessed as thermal stability by measuring change in melting temperature at 400 uM […]; type: nucleic-acid assay
[3] = tested on: Quadruplex DNA; assay: Binding affinity to human TERT G4 DNA in Tris-HCl buffer at pH 7.4 assessed as increase in CD signal at 5 to 100 uM by circular dichroism spectrometer; type: nucleic-acid assay; settings: dose 5-100 µM
[4] = tested on: MDA-MB-231; assay: Induction of mitochondrial dysfunction in human MDA-MB-231 cells assessed as mitochondrial membrane potential impairment at 0 to 1.5 uM incubated for 48 hrs by Hoechst33342 staining based microscopic analysis; type: functional, cell-based; settings: dose 0-1.5 µM
[5] = tested on: MDA-MB-231; assay: Downregulation of ND2 gene expression in human MDA-MB-231 cells at 1 uM measured after 48 hrs by RNA-seq analysis; type: functional, cell-based
[6] = tested on: Quadruplex DNA; assay: Binding affinity to hTERT G4 DNA assessed as change in enthalpy at 400 uM by ITC analysis; type: nucleic-acid assay; settings: Homo sapiens
[7] = tested on: MDA-MB-231; assay: Induction of ferroptosis in human MDA-MB-231 cells assessed as increase in ROS production measured after 48 hrs by Hoechst 33342 staining based confocal microscopic analysis; type: functional, cell-based; settings: dose 0-1.5 µM
[8] = tested on: MDA-MB-231; assay: Induction of mitochondrial dysfunction in human MDA-MB-231 cells assessed as increase in mitochondrial ROS production at 0 to 1.5 uM incubated for 48 hrs by Hoechst33342 staining based microscopic analysis; type: functional, cell-based; settings: dose 0-1.5 µM
[9] = tested on: Quadruplex DNA; assay: Binding affinity to CKIT-2 G4 DNA (unknown origin) assessed as change in gibbs free energy at 400 uM by ITC analysis; type: nucleic-acid assay
[10] = tested on: Quadruplex DNA; assay: Binding affinity to c-MYC Pu27 G4 DNA (unknown origin) assessed as thermal stability by measuring change in melting temperature at 400 uM […]; type: nucleic-acid assay
[11] = Selectivity ratio of binding affinity to human TERT G4 DNA to binding affinity to RET G4 DNA (unknown origin)
[12] = Toxicity in female Balb/c nude mouse xenografted with human MDA-MB-231 cells assessed as change in blood urea nitrogen level at 2 to 5 mg/kg, iv administered via tail vein every 2 days for 16 days; type: organism-based; settings: in vivo, 384 h, dose 2-5 mg/kg, time 16 day
[13] = target: Quadruplex DNA; assay: Binding affinity to Telo21 G4 DNA (unknown origin) assessed as dissociation constant by ITC analysis; type: nucleic-acid assay
[14] = tested on: MDA-MB-231; assay: Antitumor activity against human MDA-MB-231 cells xenografted in female Balb/c mouse assessed as reduction in tumor weight at 5 mg/kg, iv administered via tail vein every 2 days for 16 days relative to control; type: functional; design: scale not given: the % may be the effect or the level left; settings: time 16 day
[15] = tested on: MDA-MB-231; assay: Downregulation of p62 protein expression in human MDA-MB-231 cells at 0 to 1.5 uM measured after 48 hrs by Western blot analysis; type: functional, cell-based; settings: dose 0-1.5 µM
[16] = Selectivity ratio of binding affinity to human TERT G4 DNA to binding affinity to 4a4t duplex DNA (unknown origin)
[17] = Toxicity in female Balb/c nude mouse xenografted with human MDA-MB-231 cells assessed as change in mean corpuscular volume at 2 to 5 mg/kg, iv administered via tail vein every 2 days for 16 days; type: organism-based; settings: in vivo, 384 h, dose 2-5 mg/kg, time 16 day
[18] = Selectivity ratio of binding affinity to human TERT G4 DNA to binding affinity to Telo21 G4 DNA (unknown origin)
[19] = tested on: MDA-MB-231; assay: Downregulation of ND6 gene expression in human MDA-MB-231 cells at 1 uM measured after 48 hrs by RNA-seq analysis; type: functional, cell-based
[20] = tested on: DNA; assay: Binding affinity to Ds26 duplex DNA (unknown origin) assessed as thermal stability by measuring change in melting temperature at 400 uM […]; type: nucleic-acid assay
[21] = Upregulation of SAT1 gene expression in human MDA-MB-231 cells assessed as fold change at 1 uM measured after 48 hrs by RNA-seq analysis relative to control; type: functional
[22] = tested on: Quadruplex DNA; assay: Binding affinity to Bcl-2 G4 DNA (unknown origin) assessed as change in enthalpy at 400 uM by ITC analysis; type: nucleic-acid assay
[23] = tested on: MDA-MB-231; assay: Inhibition of TRF2 protein expression in human MDA-MB-231 cells measured after 48 hrs by Western blot analysis; type: functional, cell-based; settings: dose 0-1.5 µM
[24] = tested on: MDA-MB-231; assay: Activation of apoptosis in human MDA-MB-231 cells assessed as downregulation of Bcl-2 protein expression measured after 48 hrs by Western blot analysis; type: functional, cell-based; settings: dose 0-1.5 µM
[25] = Toxicity in female Balb/c nude mouse xenografted with human MDA-MB-231 cells assessed as change in AST level at 2 to 5 mg/kg, iv administered via tail vein every 2 days for 16 days; type: organism-based; settings: in vivo, 384 h, dose 2-5 mg/kg, time 16 day
[26] = tested on: MDA-MB-231; assay: Cytotoxicity against human MDA-MB-231 cells assessed as inhibition of cell growth incubated for 48 hrs in presence of TBHP by MTT assay; type: functional, cell-based; settings: MDA-MB-231, 48 h
[27] = tested on: Quadruplex DNA; assay: Binding affinity to CKIT-2 G4 DNA (unknown origin) assessed as thermal stability by measuring change in melting temperature at 400 uM […]; type: nucleic-acid assay
[28] = tested on: MDA-MB-231; assay: Inhibition of hTERT expression in human MDA-MB-231 cells assessed as reduction in pink foci in cytoplasm at 0.5 uM incubated for 48 hrs in presence of TBHP at 200 uM by immunofluorescence analysis; type: functional, cell-based
[29] = Upregulation of TGFBR2 gene expression in human MDA-MB-231 cells assessed as fold change at 1 uM measured after 48 hrs by RNA-seq analysis relative to control; type: functional
[30] = tested on: MDA-MB-231; assay: Induction of telomere dysfunction in human MDA-MB-231 cells assessed as cellular senescence at 0.2 uM measured after 10 days by SA-beta-gal staining based analysis; type: functional, cell-based; settings: time 10.0 day
[31] = tested on: MDA-MB-231; assay: Downregulation of Artemis transcription level in human MDA-MB-231 cells at 1 uM measured after 48 hrs by RNA-seq analysis; type: functional, cell-based
[32] = Toxicity in female Balb/c nude mouse xenografted with human MDA-MB-231 cells assessed as pathological changes in lung at 2 to 5 mg/kg, iv administered via tail vein every 2 days for 16 days by H and E staining based analysis; type: organism-based; settings: in vivo, 384 h, dose 2-5 mg/kg, time 16 day
[33] = target: DNA; assay: Binding affinity to Ds26 duplex DNA (unknown origin) assessed as dissociation constant by ITC analysis; type: nucleic-acid assay
[34] = tested on: Quadruplex DNA; assay: Binding affinity to RET G4 DNA (unknown origin) assessed as thermal stability by measuring change in melting temperature at 400 uM […]; type: nucleic-acid assay
[35] = Toxicity in female Balb/c nude mouse xenografted with human MDA-MB-231 cells assessed as change in ALT level at 2 to 5 mg/kg, iv administered via tail vein every 2 days for 16 days; type: organism-based; settings: in vivo, 384 h, dose 2-5 mg/kg, time 16 day
[36] = Upregulation of EGF gene expression in human MDA-MB-231 cells assessed as fold change at 1 uM measured after 48 hrs by RNA-seq analysis relative to control; type: functional
[37] = tested on: MDA-MB-231; assay: Disruption of energy metabolism in human MDA-MB-231 cells assessed as reduction in cellular energy production by measuring reduction in ATP production at 0 to 1.5 uM measured after 2 hrs by Seahorse XF24 analyzer; type: functional, cell-based; settings: dose 0-1.5 µM

ΔTm [2]: 6.4 °C | Activity [3]: Active | deltaH [6]: -2.72 kcal/mol | deltaG [9]: -7.05 kcal/mol | ΔTm [10]: 2.59 °C | Selectivity ratio [11]: 2 | Kd [13]: 3.28 µM | Selectivity ratio [16]: 3 | Selectivity ratio [18]: 2 | ΔTm [20]: 1.01 °C | deltaH [22]: -2.34 kcal/mol | ΔTm [27]: 2.45 °C | Kd [33]: 18.9 µM | ΔTm [34]: 0.96 °C
Structure (SMILES): C[n+]1c(/C=C/c2c[nH]c3ccccc23)cc(/C=C2\Sc3ccccc3N2CCCN2CCC(C(F)(F)F)CC2)c2ccccc21.[I-]
Activity [1]: Dose-Dependent Effect | Activity [4]: Active | Activity [5]: Active | Activity [7]: Dose-Dependent Effect | Activity [8]: Active | Activity [12]: Non-Toxic | Activity [14]: 78.7% | Activity [15]: Active | Activity [17]: Non-Toxic | Activity [19]: Active | fold change (FC) [21]: >2 | inhibition [23]: Dose-Dependent Effect | Activity [24]: Dose-Dependent Effect | Activity [25]: Non-Toxic | IC50 [26]: 0.67 µM | inhibition [28]: Active | fold change (FC) [29]: >2 | Activity [30]: Active | Activity [31]: Active | Activity [32]: Non-Toxic | Activity [35]: Non-Toxic | fold change (FC) [36]: >2 | Activity [37]: Active
